Literature values as cited in US10427959B2, “Method and system for the autonomous self-limiting generation of chlorine dioxide” (TRUOX, INC., priority 2016, dated 2019).
Where two headings read alike, the source gives them in different places.

Details: saturated aqueous solution

solubility (at 20° C.) [wt %] | Structure (SMILES) | solubility (at 25° C.) [wt %]
0.1 | CC1(C)C(=O)N(Br)C(=O)N1Br [DBDMH, 1,3-dibromo-5,5-dimethylhydantoin] | 
 | CC1(C)C(=O)N(Cl)C(=O)N1Br [BCDMH, 1,3-bromo-chloro-5,5-dimethylhydantoin] | 0.2
